According to patent US20240018133A1, “MODULATORS OF THE INTEGRATED STRESS PATHWAY” (Calico Life Sciences LLC, priority 2019, published 2024):

These molecules were tested on ATF4 luciferase reporter (human full-length ATF4 5'-UTR fused to firefly luciferase) in HEK293T cells (assay: ATF4-Luc assay (in vitro model of VWMD): HEK293T cells carrying ATF4 luciferase reporter, tunicamycin-treated). Settings: Homo sapiens, HEK-293T, 1 μg/mL tunicamycin, 7 hours, One Glo luminescence.
Type: cell-based
Procedure, shortened: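 Stable HEK293T line with human ATF4 5′-UTR–firefly luciferase reporter treated with 1 μg/mL tunicamycin plus 200 nM compound for 7 h. Luminescence read; EC50 derived.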

Compared with `O=C(COc1ccc(Cl)cn1)NC12CC(NC(=O)[C@H]3C[C@@H](O)c4cc(Cl)ccc4O3)(C1)C2` [Compound 233, (2R,4R)-6-chloro-N-(3-{2-[(5-chloropyridin-2-yl)oxy]acetamido}bicyclo[1.1.1]pentan-1-yl)-4-hydroxy-3,4-dihydro-2H-1-benzopyran-2-carboxamide], `O=C(COc1ccc(Cl)c(F)c1)NC12CC(NC(=O)C3CC(O)c4ccc(Cl)cc4O3)(C1)C2` (stereo not shown) [Compound 247, 7-chloro-N-{3-[2-(4-chloro-3-fluorophenoxy)acetamido]bicyclo[1.1.1]pentan-1-yl}-4-hydroxy-3,4-dihydro-2H-1-benzopyran-2-carboxamide] is lower in EC50: 10 to 50 nM for the first, under 10 nM for the second. The second is the more potent here.

First: O=C(COc1ccc(Cl)c(F)c1)NC12CC(NC(=O)c3cc(=O)c4ccc(Cl)cc4o3)(C1)C2 [Compound 235, 7-chloro-N-{3-[2-(4-chloro-3-fluorophenoxy)acetamido]bicyclo[1.1.1]pentan-1-yl}-4-oxo-4H-1-benzopyran-2-carboxamide]
Second: Cc1cc2oc(C(=O)NC34CC(NC(=O)COc5ccc(Cl)c(F)c5)(C3)C4)cc(=O)c2cc1Cl [Compound 236, 6-chloro-N-{3-[2-(4-chloro-3-fluorophenoxy)acetamido]bicyclo[1.1.1]pentan-1-yl}-7-methyl-4-oxo-4H-1-benzopyran-2-carboxamide]
The EC50 of the first is higher: 10 to 50 nM for the first, under 10 nM for the second. The second is the more potent here.

Compared with `CC1(C(=O)NC23CC(NC(=O)COc4ccc(Cl)c(F)c4)(C2)C3)CCc2cc(Cl)ccc2O1` (stereo not shown) [Compound 240, 6-chloro-N-{3-[2-(4-chloro-3-fluorophenoxy)acetamido]bicyclo[1.1.1]pentan-1-yl}-2-methyl-3,4-dihydro-2H-1-benzopyran-2-carboxamide], `C[C@@]1(C(=O)NC23CC(NC(=O)COc4ccc(Cl)c(F)c4)(C2)C3)Cc2cc(Cl)ccc2O1` [Compound 257, (2S)-5-chloro-N-{3-[2-(4-chloro-3-fluorophenoxy)acetamido]bicyclo[1.1.1]pentan-1-yl}-2-methyl-2,3-dihydro-1-benzofuran-2-carboxamide] is higher in EC50: 10 to 50 nM for the first, over 2000 nM for the second. The first is the more potent here.

`Cc1cc2c(cc1F)[C@@H](O)C[C@@H](C(=O)NC13CC(NC(=O)COc4ccc(Cl)c(F)c4)(C1)C3)O2` [Compound 242, (2S,4S)—N-{3-[2-(4-chloro-3-fluorophenoxy)acetamido]bicyclo[1.1.1]pentan-1-yl}-6-fluoro-4-hydroxy-7-methyl-3,4-dihydro-2H-1-benzopyran-2-carboxamide] and `O=C(COc1ccc(Cl)c(F)c1)NC12CC(NC(=O)C3CC(O)c4cc(F)c(Cl)cc4O3)(C1)C2` (stereo not shown) [Compound 246, 7-chloro-N-{3-[2-(4-chloro-3-fluorophenoxy)acetamido]bicyclo[1.1.1]pentan-1-yl}-6-fluoro-4-hydroxy-3,4-dihydro-2H-1-benzopyran-2-carboxamide] cannot be ordered by EC50: under 10 nM for the first, under 10 nM for the second.

`O=C(COc1ccc(Cl)c(F)c1)NC12CC(NC(=O)C3CC(O)c4ccc(C(F)(F)F)cc4O3)(C1)C2` (stereo not shown) [Compound 243, N-{3-[2-(4-chloro-3-fluorophenoxy)acetamido]bicyclo[1.1.1]pentan-1-yl}-4-hydroxy-7-(trifluoromethyl)-3,4-dihydro-2H-1-benzopyran-2-carboxamide] and `Cc1ccc2c(c1)C(O)CC(C(=O)NC13CC(NC(=O)COc4ccc(Cl)c(F)c4)(C1)C3)O2` (stereo not shown) [Compound 254, N-{3-[2-(4-chloro-3-fluorophenoxy)acetamido]bicyclo[1.1.1]pentan-1-yl}-4-hydroxy-6-methyl-3,4-dihydro-2H-1-benzopyran-2-carboxamide] cannot be ordered by EC50: under 10 nM for the first, under 10 nM for the second.

First: CS(=O)(=O)N[C@H]1C[C@H](C(=O)NC23CC(NC(=O)COc4ccc(Cl)c(F)c4)(C2)C3)Oc2ccc(Cl)cc21 [Compound 244, (2R,4S)-6-chloro-N-{3-[2-(4-chloro-3-fluorophenoxy)acetamido]bicyclo[1.1.1]pentan-1-yl}-4-[(methanesulfonyl)amino]-3,4-dihydro-2H-1-benzopyran-2-carboxamide]
Second: CS(=O)(=O)N[C@@H]1C[C@@H](C(=O)NC23CC(NC(=O)COc4ccc(Cl)c(F)c4)(C2)C3)Oc2ccc(Cl)cc21 [Compound 245, (2S,4R)-6-chloro-N-{3-[2-(4-chloro-3-fluorophenoxy)acetamido]bicyclo[1.1.1]pentan-1-yl}-4-[(methanesulfonyl)amino]-3,4-dihydro-2H-1-benzopyran-2-carboxamide]
The EC50 of the first is higher: 10 to 50 nM for the first, under 10 nM for the second. The second is the more potent here.

`O=C(COc1ccc(Cl)c(F)c1)NC12CC(NC(=O)C3CC(=O)c4cc(F)c(F)cc4O3)(C1)C2` (stereo not shown) [Compound 248, N-{3-[2-(4-chloro-3-fluorophenoxy)acetamido]bicyclo[1.1.1]pentan-1-yl}-6,7-difluoro-4-oxo-3,4-dihydro-2H-1-benzopyran-2-carboxamide] and `O=C(COc1ccc(Cl)c(F)c1)NC12CC(NC(=O)[C@H]3C[C@@H](O)c4cc(F)c(F)cc4O3)(C1)C2` [Compound 252, (2R,4R)—N-{3-[2-(4-chloro-3-fluorophenoxy)acetamido]bicyclo[1.1.1]pentan-1-yl}-6,7-difluoro-4-hydroxy-3,4-dihydro-2H-1-benzopyran-2-carboxamide] cannot be ordered by EC50: under 10 nM for the first, under 10 nM for the second.

`O=C(COc1ccc(Cl)c(F)c1)NC12CC(NC(=O)[C@@H]3C[C@H](O)c4cc(F)c(F)cc4O3)(C1)C2` [Compound 253, (2S,4S)—N-{3-[2-(4-chloro-3-fluorophenoxy)acetamido]bicyclo[1.1.1]pentan-1-yl}-6,7-difluoro-4-hydroxy-3,4-dihydro-2H-1-benzopyran-2-carboxamide] and `O=C(COc1ccc(Cl)c(F)c1)NC12CC(NC(=O)[C@H]3C[C@@H](O)c4cc(Cl)c(F)cc4O3)(C1)C2` [Compound 264, (2R,4R)-6-chloro-N-{3-[2-(4-chloro-3-fluorophenoxy)acetamido]bicyclo[1.1.1]pentan-1-yl}-7-fluoro-4-hydroxy-3,4-dihydro-2H-1-benzopyran-2-carboxamide] cannot be ordered by EC50: under 10 nM for the first, under 10 nM for the second.

`O=C(COc1ccc(Cl)c(F)c1)NC12CCC(NC(=O)[C@H]3CC(=O)c4cc(Cl)ccc4O3)(C1)C2` [Compound 255, (2R)-6-chloro-N-{4-[2-(4-chloro-3-fluorophenoxy)acetamido]bicyclo[2.1.1]hexan-1-yl}-4-oxo-3,4-dihydro-2H-1-benzopyran-2-carboxamide] and `O=C(COc1ccc(Cl)c(F)c1)NC12CCC(NC(=O)[C@H]3C[C@@H](O)c4cc(Cl)ccc4O3)(C1)C2` [Compound 256, (2R,4R)-6-chloro-N-{4-[2-(4-chloro-3-fluorophenoxy)acetamido]bicyclo[2.1.1]hexan-1-yl}-4-hydroxy-3,4-dihydro-2H-1-benzopyran-2-carboxamide] cannot be ordered by EC50: under 10 nM for the first, under 10 nM for the second.

Compared with `C[C@]1(C(=O)NC23CC(NC(=O)COc4ccc(Cl)c(F)c4)(C2)C3)Cc2cc(Cl)ccc2O1` [Compound 258, (2R)-5-chloro-N-{3-[2-(4-chloro-3-fluorophenoxy)acetamido]bicyclo[1.1.1]pentan-1-yl}-2-methyl-2,3-dihydro-1-benzofuran-2-carboxamide], `C[C@]1(C(=O)NC23CC(NC(=O)COc4ccc(Cl)c(F)c4)(C2)C3)Oc2ccc(Cl)cc2C1=O` [Compound 259, (2S)-5-chloro-N-{3-[2-(4-chloro-3-fluorophenoxy)acetamido]bicyclo[1.1.1]pentan-1-yl}-2-methyl-3-oxo-2,3-dihydro-1-benzofuran-2-carboxamide] is lower in EC50: over 2000 nM for the first, 500 to 2000 nM for the second. The second is the more potent here.

Compared with `O=C(COc1ccc(Cl)c(F)c1)NC12CCC(NC(=O)[C@H]3C[C@H](O)c4cc(Cl)ccc4O3)(C1)C2` [Compound 260, (2R,4S)-6-chloro-N-{4-[2-(4-chloro-3-fluorophenoxy)acetamido]bicyclo[2.1.1]hexan-1-yl}-4-hydroxy-3,4-dihydro-2H-1-benzopyran-2-carboxamide], `O=C(COc1ccc(Cl)c(F)c1)NC12CC(NC(=O)[C@H]3C[C@@H](O)c4ccccc4O3)(C1)C2` [Compound 267, (2R,4R)—N-{3-[2-(4-chloro-3-fluorophenoxy)acetamido]bicyclo[1.1.1]pentan-1-yl}-4-hydroxy-3,4-dihydro-2H-1-benzopyran-2-carboxamide] is higher in EC50: under 10 nM for the first, 10 to 50 nM for the second. The first is the more potent here.

`O=C(COc1ccc(Cl)c(F)c1)NC12CC(NC(=O)C3Cc4cc(Cl)ccc4N3)(C1)C2` (stereo not shown) [Compound 261, 5-chloro-N-{3-[2-(4-chloro-3-fluorophenoxy)acetamido]bicyclo[1.1.1]pentan-1-yl}-2,3-dihydro-1H-indole-2-carboxamide] and `CN1c2ccc(Cl)cc2CC1C(=O)NC12CC(NC(=O)COc3ccc(Cl)c(F)c3)(C1)C2` (stereo not shown) [Compound 266, 5-chloro-N-{3-[2-(4-chloro-3-fluorophenoxy)acetamido]bicyclo[1.1.1]pentan-1-yl}-1-methyl-2,3-dihydro-1H-indole-2-carboxamide] fall in the same range of EC50: 50 to 250 nM for the first, 50 to 250 nM for the second.

`C[C@]1(C(=O)NC23CC(NC(=O)COc4ccc(Cl)c(F)c4)(C2)C3)Oc2ccc(Cl)cc2C1O` (stereo partly drawn) [Compound 262, (2S)-5-chloro-N-{3-[2-(4-chloro-3-fluorophenoxy)acetamido]bicyclo[1.1.1]pentan-1-yl}-3-hydroxy-2-methyl-2,3-dihydro-1-benzofuran-2-carboxamide] and `C[C@@]1(C(=O)NC23CC(NC(=O)COc4ccc(Cl)c(F)c4)(C2)C3)Oc2ccc(Cl)cc2C1O` (stereo partly drawn) [Compound 263, (2R)-5-chloro-N-{3-[2-(4-chloro-3-fluorophenoxy)acetamido]bicyclo[1.1.1]pentan-1-yl}-3-hydroxy-2-methyl-2,3-dihydro-1-benzofuran-2-carboxamide] cannot be ordered by EC50: over 2000 nM for the first, over 2000 nM for the second.

First: O=C(COc1ccc(Cl)c(F)c1)NC12CC(NC(=O)[C@H]3CC(=O)c4ccccc4O3)(C1)C2 [Compound 268, (2R)—N-{3-[2-(4-chloro-3-fluorophenoxy)acetamido]bicyclo[1.1.1]pentan-1-yl}-4-oxo-3,4-dihydro-2H-1-benzopyran-2-carboxamide]
Second: O=C(COc1ccc(Cl)c(F)c1)NC12CC(NC(=O)[C@@H]3CC(=O)c4ccccc4O3)(C1)C2 [Compound 269, (2S)—N-{3-[2-(4-chloro-3-fluorophenoxy)acetamido]bicyclo[1.1.1]pentan-1-yl}-4-oxo-3,4-dihydro-2H-1-benzopyran-2-carboxamide]
The EC50 of the first is lower: 10 to 50 nM for the first, 50 to 250 nM for the second.
